Data published in patent EP4692090A1 (Shanghai Fosun Pharmaceutical (Group) Co., Ltd., priority 2023, dated 2024).
Where two headings read alike, the source gives them in different places.

Columns and labels:
ATR kinase = molecular target: T1, ATR kinase (Homo sapiens, UniProt Q13535); assay: Inhibitory effect on ATR kinase activity (Caliper mobility shift, FAM-labeled RAD17 peptide substrate); assay type: biochemical
T1 construct: purchased Eurofins 14-953
Protocol: Test Example 1: Inhibitory effect of the compounds of the present disclosure on ATR kinase activity
Test compounds to be tested were serially diluted with DMSO (maximum concentration 1 µM, 10 concentrations with 3-fold serial dilution) and added to the wells of a 384-well reaction plate (Corning, #4512). 1 nM ATR kinase (Eurofins, #14-953), 5 mM substrate (FAM-labeled RAD17 peptide, FAM-ASELPASQPQPFSAKKK), 5 mM ATP and the compounds with corresponding concentrations reacted in a kinase reaction solution (50 mM HEPES, pH 7.5; 0.0015% Brij-35; 10 mM MnCl2, total volume of 20 µL) at 28°C for 3 hours. The reaction was terminated by adding 30 µL of stop solution (100 mM HEPES, pH 7.5; 0.015% Brij-35; 0.2% Coating Reagent #3, PerkinElmer; 50 mM EDTA). The reaction plate was placed on a Caliper instrument (PerkinElmer) for testing. The relative inhibitory activity of each compound concentration group was calculated using the following formula: % Inhibition = (Conversion rate of the blank control group without compound added - Conversion rate of the test compound group) / (Conversion rate of the blank control group - […]). The IC50 values were calculated using GraphPad analysis and fitted. […] Table 1. Inhibitory effect (IC50) of compounds on ATR kinase activity.

LoVo cells = assay: LoVo cell proliferation assay (CellTiter-Glo); assay type: cell-based; conditions: maximum concentration 10 µM, 9 concentrations
Protocol: Test Example 2: LoVo cell proliferation assay
LoVo (ATCC, #CRL-229) cells in logarithmic growth phase were digested, counted, and plated into 96-well cell culture plates at 2,000 cells per well. The plates containing cells were incubated overnight at 37°C in a 5% CO2 incubator, and then test compounds with 3-fold gradient dilutions (maximum concentration: 10 µM, 9 concentrations) were added. DMSO was used as a blank control. After the LoVo cells containing the compounds or DMSO were incubated for an additional 5 days, an equal volume of CellTiter-Glo reagent (Promega, #7573) was added. After incubation at room temperature for 30 minutes, chemiluminescence was read using an Envision 2105 (PerkinElmer). The cell proliferation inhibition rate (%) for wells treated with each concentration of the compounds was calculated using the following formula. Then, with compound concentration as the horizontal axis and cell proliferation inhibition rate (%) as the vertical axis, GraphPad software was used to plot the data and determine the IC50 values of the test compounds. The results are shown in Table 2, wherein the IC50 ranges are defined as follows: A: ≤ 100 nM; 1000 nM ≥ B > 100 nM; C > 1000 nM.
Cell proliferation inhibition (%) = (1 - luminescence value of compound-treated group / average luminescence value of DMSO blank control group) × 100. Table 2. Inhibitory effect of compounds on LoVo growth

[1] = read-out: ATR kinase IC50, 1 nM ATR kinase (Eurofins), 28°C for 3 hours, maximum concentration 1 µM, 10 concentrations
[2] = LoVo cells, 2,000 cells per well, 5 days incubation, CellTiter-Glo, read-out: LoVo IC50
[3] = 1 nM ATR kinase (Eurofins), 28°C for 3 hours, maximum concentration 1 µM, 10 concentrations, read-out: ATR kinase IC50
[4] = Homo sapiens, LoVo, 120 h, read-out: LoVo IC50 (nM), LoVo cells, 2,000 cells per well, 5 days incubation, CellTiter-Glo
[5] = Homo sapiens, LoVo, 120 h, LoVo cells, 2,000 cells per well, 5 days incubation, CellTiter-Glo, read-out: LoVo IC50
[6] = ATR kinase IC50 (nM), 1 nM ATR kinase (Eurofins), 28°C for 3 hours, maximum concentration 1 µM, 10 concentrations

T1 sequence (Q13535 whole entry): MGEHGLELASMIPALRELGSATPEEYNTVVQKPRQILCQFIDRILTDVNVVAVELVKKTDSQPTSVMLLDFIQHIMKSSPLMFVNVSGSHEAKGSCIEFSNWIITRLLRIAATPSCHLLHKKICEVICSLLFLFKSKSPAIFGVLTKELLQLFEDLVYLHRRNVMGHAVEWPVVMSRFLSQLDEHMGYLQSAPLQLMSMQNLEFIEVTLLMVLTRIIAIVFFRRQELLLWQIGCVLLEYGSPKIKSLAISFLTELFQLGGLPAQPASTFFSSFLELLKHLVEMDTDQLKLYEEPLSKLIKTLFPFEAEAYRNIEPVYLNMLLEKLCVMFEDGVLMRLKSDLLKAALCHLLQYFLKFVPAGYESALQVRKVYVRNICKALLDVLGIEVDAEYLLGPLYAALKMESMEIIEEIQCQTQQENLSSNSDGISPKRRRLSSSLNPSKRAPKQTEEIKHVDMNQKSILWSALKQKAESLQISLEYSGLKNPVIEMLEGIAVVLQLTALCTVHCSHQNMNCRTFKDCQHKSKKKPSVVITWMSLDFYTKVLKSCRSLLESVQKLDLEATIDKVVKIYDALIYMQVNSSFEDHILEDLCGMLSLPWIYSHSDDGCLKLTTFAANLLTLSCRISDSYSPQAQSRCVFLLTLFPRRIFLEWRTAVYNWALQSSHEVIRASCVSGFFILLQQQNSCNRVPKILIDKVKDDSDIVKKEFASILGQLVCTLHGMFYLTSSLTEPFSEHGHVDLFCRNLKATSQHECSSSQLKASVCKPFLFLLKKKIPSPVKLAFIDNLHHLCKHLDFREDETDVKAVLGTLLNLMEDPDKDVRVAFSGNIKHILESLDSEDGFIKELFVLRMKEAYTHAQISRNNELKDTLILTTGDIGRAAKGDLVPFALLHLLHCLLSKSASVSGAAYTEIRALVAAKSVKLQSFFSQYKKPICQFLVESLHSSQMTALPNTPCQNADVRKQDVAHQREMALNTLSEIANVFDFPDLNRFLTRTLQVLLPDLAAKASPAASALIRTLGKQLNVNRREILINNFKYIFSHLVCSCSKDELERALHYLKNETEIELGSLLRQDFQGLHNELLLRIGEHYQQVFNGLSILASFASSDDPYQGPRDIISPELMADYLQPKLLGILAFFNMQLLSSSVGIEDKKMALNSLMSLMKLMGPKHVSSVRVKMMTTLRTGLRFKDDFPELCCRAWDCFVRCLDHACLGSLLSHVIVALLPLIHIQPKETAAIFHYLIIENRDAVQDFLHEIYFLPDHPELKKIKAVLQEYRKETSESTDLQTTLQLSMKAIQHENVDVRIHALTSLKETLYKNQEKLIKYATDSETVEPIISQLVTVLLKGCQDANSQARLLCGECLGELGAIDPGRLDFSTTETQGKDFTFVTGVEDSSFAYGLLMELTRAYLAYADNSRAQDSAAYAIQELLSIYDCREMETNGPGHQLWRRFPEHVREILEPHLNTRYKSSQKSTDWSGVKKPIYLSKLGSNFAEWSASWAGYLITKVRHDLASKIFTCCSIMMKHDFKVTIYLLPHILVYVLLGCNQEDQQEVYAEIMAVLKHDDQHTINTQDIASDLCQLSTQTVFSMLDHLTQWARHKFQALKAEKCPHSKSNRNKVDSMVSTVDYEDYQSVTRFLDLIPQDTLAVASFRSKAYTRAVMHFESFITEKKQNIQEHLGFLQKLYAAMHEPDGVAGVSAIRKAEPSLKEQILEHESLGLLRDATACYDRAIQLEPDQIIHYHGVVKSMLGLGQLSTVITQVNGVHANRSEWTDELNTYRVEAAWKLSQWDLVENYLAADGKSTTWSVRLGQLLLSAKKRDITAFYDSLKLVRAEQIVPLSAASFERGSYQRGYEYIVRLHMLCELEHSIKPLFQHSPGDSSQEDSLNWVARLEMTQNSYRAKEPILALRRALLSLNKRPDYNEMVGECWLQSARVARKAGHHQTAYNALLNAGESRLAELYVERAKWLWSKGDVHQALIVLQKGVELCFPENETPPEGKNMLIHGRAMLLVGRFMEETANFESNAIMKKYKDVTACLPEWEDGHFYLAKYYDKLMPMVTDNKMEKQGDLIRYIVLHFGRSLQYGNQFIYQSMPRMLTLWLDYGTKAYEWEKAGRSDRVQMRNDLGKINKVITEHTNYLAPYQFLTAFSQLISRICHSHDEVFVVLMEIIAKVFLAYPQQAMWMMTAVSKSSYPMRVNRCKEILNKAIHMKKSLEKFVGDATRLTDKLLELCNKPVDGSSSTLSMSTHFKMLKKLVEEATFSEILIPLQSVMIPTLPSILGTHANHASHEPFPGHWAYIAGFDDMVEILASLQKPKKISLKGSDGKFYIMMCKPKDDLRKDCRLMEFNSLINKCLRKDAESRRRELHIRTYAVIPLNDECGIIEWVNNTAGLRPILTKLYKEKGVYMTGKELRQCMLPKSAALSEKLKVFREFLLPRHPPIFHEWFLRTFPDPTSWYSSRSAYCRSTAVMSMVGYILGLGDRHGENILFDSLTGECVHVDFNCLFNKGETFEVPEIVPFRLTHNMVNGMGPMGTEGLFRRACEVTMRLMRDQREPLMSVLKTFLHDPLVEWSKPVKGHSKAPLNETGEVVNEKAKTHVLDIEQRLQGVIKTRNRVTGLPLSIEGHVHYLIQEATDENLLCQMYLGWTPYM
T1 sequence (Q8WXE1 whole entry partner): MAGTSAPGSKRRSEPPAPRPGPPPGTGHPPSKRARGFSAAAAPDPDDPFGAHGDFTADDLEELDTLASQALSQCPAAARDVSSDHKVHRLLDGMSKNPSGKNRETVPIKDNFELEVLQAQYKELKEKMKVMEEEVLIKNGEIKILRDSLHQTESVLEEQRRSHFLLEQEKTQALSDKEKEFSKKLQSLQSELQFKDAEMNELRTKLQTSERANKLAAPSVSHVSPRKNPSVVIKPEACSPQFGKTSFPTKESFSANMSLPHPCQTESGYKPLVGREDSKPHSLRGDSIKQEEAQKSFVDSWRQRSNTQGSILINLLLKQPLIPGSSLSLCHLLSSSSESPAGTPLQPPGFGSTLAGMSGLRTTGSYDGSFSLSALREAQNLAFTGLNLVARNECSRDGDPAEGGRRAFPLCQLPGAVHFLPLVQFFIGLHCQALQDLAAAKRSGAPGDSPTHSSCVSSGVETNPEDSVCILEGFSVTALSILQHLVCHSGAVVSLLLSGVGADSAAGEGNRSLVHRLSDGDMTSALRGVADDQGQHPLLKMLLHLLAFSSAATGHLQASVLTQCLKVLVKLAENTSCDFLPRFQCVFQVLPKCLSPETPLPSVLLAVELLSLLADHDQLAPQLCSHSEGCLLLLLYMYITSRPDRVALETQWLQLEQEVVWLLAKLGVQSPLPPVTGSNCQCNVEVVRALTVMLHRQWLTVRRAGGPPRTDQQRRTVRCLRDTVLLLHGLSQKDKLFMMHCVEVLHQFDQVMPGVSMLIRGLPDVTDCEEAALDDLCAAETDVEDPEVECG

C[C@@H]1COCCN1c1cc2c3c(nn(-c4cc[nH]n4)c3n1)CCN(C)C2=O [Compound 137, (R)-7-methyl-4-(3-methylmorpholinyl)-2-(1H-pyrazol-3-yl)-2,7,8,9-tetrahydro-6H-1,2,3,7-tetraazabenzo[cd]azulene-6-one]
IC50 (ATR kinase; [1]): 10 to 100 nM

CCC1c2cc(N3CCOC[C@H]3C)nc3c2c(nn3-c2cc[nH]n2)CCN1S(=O)(=O)C1CC1 (single isomer, unassigned) [Compound 145B]
IC50 (LoVo cells; [2]): 100 to 1000 nM | IC50 (ATR kinase; [3]): < 10 nM

C=CC(C)N1C(=O)CCn2nc(-c3cc[nH]n3)c3nc(N4CCOC[C@H]4C)cc1c32 (stereo partly drawn) [Compound 106, 6-(but-3-en-2-yl)-4-((R)-3-methylmorpholinyl)-2-(1H-pyrazol-3-yl)-8,9-dihydro-1,3,6,9a-tetraazabenzo[cd]azulene-7(6H)-one]
IC50 (LoVo cells; [4]): < 100 nM | IC50 (ATR kinase; [1]): < 10 nM

CC1c2cc(N3CCOC[C@H]3C)nc3c2c(nn3-c2cc[nH]n2)CCN1C(=O)C1(C#N)CC1 (single isomer, unassigned) [Compound 40B]
IC50 (LoVo cells; read-out: LoVo IC50, LoVo cells, 2,000 cells per well, 5 days incubation, CellTiter-Glo): 100 to 1000 nM | IC50 (ATR kinase; [1]): 10 to 100 nM

CN=S(C)(=O)N1CCc2nn(-c3cc[nH]n3)c3nc(N4CCOC[C@H]4C)cc(c23)C1C (single isomer, unassigned) [Compound 152A]
IC50 (LoVo cells; [5]): < 100 nM | IC50 (ATR kinase; [3]): < 10 nM

CC1c2cc(N3CCOC[C@H]3C)nc3c2c(nn3-c2cc[nH]n2)CCN1C1CC1 (single isomer, unassigned) [Compound 31A]
IC50 (LoVo cells; [5]): < 100 nM | IC50 (ATR kinase; [3]): < 10 nM

C[C@@H]1COCCN1c1cc2c3c(n1)c(-c1cc[nH]n1)nn3CCC(=O)N2C1(C#N)CC1 [Compound 105, (R)-1-(4-(3-methylmorpholinyl)-7-oxo-2-(1H-pyrazol-3-yl)-8,9-dihydro-1,3,6,9a-tetraazabenzo[cd]azulene-6(7H)-yl)cyclopropane-1-carbonitrile]
IC50 (LoVo cells; [4]): < 100 nM | IC50 (ATR kinase; [1]): < 10 nM

C[C@@H]1COCCN1c1cc2c3c(nn(-c4cc[nH]n4)c3n1)CCN(C(=O)C1(C(F)(F)F)CC1)C2 [Compound 18, (R)-(4-(3-methylmorpholinyl)-2-(1H-pyrazol-3-yl)-2,6,8,9-tetrahydro-7H-1,2,3,7-tetraazabenzo[cd]azulen-7-yl)(1-(trifluoromethyl)cyclopropyl)methanone]
IC50 (LoVo cells; [4]): < 100 nM | IC50 (ATR kinase; [1]): < 10 nM

C[C@@H]1COCCN1c1cc2c3c(nn(-c4cc[nH]n4)c3n1)CCC(=O)N2C1CC(F)(F)C1 [Compound 79, (R)-6-(3,3-difluorocyclobutyl)-4-(3-methylmorpholinyl)-2-(1H-pyrazol-3-yl)-2,6,8,9-tetrahydro-7H-1,2,3,6-tetraazabenzo[cd]azulene-7-one]
IC50 (LoVo cells; [4]): 100 to 1000 nM | IC50 (ATR kinase; [1]): < 10 nM

CC(C)N1C(=O)CCc2nn(-c3cc[nH]n3)c3nc(N4CCOC[C@H]4C)cc1c23 [Compound 78, (R)-6-isopropyl-4-(3-methylmorpholino)-2-(1H-pyrazol-3-yl)-2,6,8,9-tetrahydro-7H-1,2,3,6-tetraazabenzo[cd]azulene-7-one]
IC50 (LoVo cells; [4]): < 100 nM | IC50 (ATR kinase; [3]): < 10 nM

C[C@@H]1COCCN1c1cc2c3c(nn(-c4cc[nH]n4)c3n1)CCNC2 [Compound 1, (R)-4-(2-(1H-pyrazol-3-yl)-6,7,8,9-tetrahydro-2H-1,2,3,7-tetraazabenzo[cd]azulen-4-yl)-3-methylmorpholine]
IC50 (LoVo cells; [4]): 100 to 1000 nM | IC50 (ATR kinase; [6]): 100 to 1000 nM

CC(C)N1CCCn2nc(-c3cc[nH]n3)c3nc(N4CCOC[C@H]4C)cc1c32 [Compound 120, (R)-4-(6-isopropyl-2-(1H-pyrazol-3-yl)-6,7,8,9-tetrahydro-1,3,6,9a-tetraazabenzo[cd]azulen-4-yl)-3-methylmorpholine]
IC50 (LoVo cells; [5]): 100 to 1000 nM | IC50 (ATR kinase; [3]): 10 to 100 nM

CC1c2cc(N3CCOC[C@H]3C)nc3c2c(nn3-c2cc[nH]n2)CCN1S(C)(=O)=O (single isomer, unassigned) [Compound 39B]
IC50 (LoVo cells; [2]): > 1000 nM | IC50 (ATR kinase; [3]): < 10 nM

CC(C)C1(O)CCn2nc(-c3cc[nH]n3)c3nc(N4CCOC[C@H]4C)cc1c32 (single isomer, unassigned) [Compound 72B]
IC50 (LoVo cells; [2]): 100 to 1000 nM | IC50 (ATR kinase; [3]): 100 to 1000 nM

C[C@@H]1COCCN1c1cc2c3c(nn(-c4cc[nH]n4)c3n1)CCN(C)C2(C)C [Compound 149, (R)-3-methyl-4-(6,6,7-trimethyl-2-(1H-pyrazol-3-yl)-6,7,8,9-tetrahydro-2H-1,2,3,7-tetraazabenzo[cd]azulen-4-yl)morpholine]
IC50 (LoVo cells; [5]): < 100 nM | IC50 (ATR kinase; [3]): < 10 nM

CCC(C)N1C(=O)CCn2nc(-c3cc[nH]n3)c3nc(N4CCOC[C@H]4C)cc1c32 (stereo partly drawn) [Compound 98, 6-(sec-butyl)-4-((R)-3-methylmorpholinyl)-2-(1H-pyrazol-3-yl)-8,9-dihydro-1,3,6,9a-tetraazabenzo[cd]azulene-7(6H)-one]
IC50 (LoVo cells; [4]): < 100 nM | IC50 (ATR kinase; [1]): < 10 nM

C[C@@H]1COCCN1c1cc2c3c(nn(-c4cc[nH]n4)c3n1)CCN(C1CCOC1)C2 (stereo partly drawn) [Compound 4, (3R)-4-(2-(1H-pyrazol-3-yl)-7-(tetrahydrofuran-3-yl)-6,7,8,9-tetrahydro-2H-1,2,3,7-tetraazabenzo[cd]azulen-4-yl)-3-methylmorpholine]
IC50 (LoVo cells; [5]): 100 to 1000 nM | IC50 (ATR kinase; [3]): 10 to 100 nM

C[C@@H]1COCCN1c1cc2c3c(n1)c(-c1cc[nH]n1)nn3CCC(=O)N2C1(CO)CC1 [Compound 114, (R)-6-(1-(hydroxymethyl)cyclopropyl)-4-(3-methylmorpholinyl)-2-(1H-pyrazol-3-yl)-8,9-dihydro-1,3,6,9a-tetraazabenzo[cd]azulene-7(6H)-one]
IC50 (LoVo cells; [4]): 100 to 1000 nM | IC50 (ATR kinase; [1]): < 10 nM

CC(=O)N1CCc2nn(-c3cc[nH]n3)c3nc(N4CCOC[C@H]4C)cc(c23)C1C (stereo partly drawn) [Compound 38, 1-(6-methyl-4-((R)-3-methylmorpholinyl)-2-(1H-pyrazol-3-yl)-2,6,8,9-tetrahydro-7H-1,2,3,7-tetraazabenzo[cd]azulen-7-yl)ethan-1-one]
IC50 (LoVo cells; [4]): 100 to 1000 nM | IC50 (ATR kinase; [1]): < 10 nM

CC1c2cc(N3CCOC[C@H]3C)nc3c2c(nn3-c2cc[nH]n2)CCN1S(=O)(=O)C1CC1F (single isomer, unassigned) [Compound 151D]
IC50 (LoVo cells; [2]): 100 to 1000 nM | IC50 (ATR kinase; [3]): 100 to 1000 nM

C[C@@H]1COCCN1c1cc2c3c(n1)c(-c1cc[nH]n1)nn3CCC(=O)N2C1(C2CC2)CC1 [Compound 108, (R)-6-([1,1'-bis(cyclopropane)]-1-yl)-4-(3-methylmorpholinyl)-2-(1H-pyrazol-3-yl)-8,9-dihydro-1,3,6,9a-tetraazabenzo[cd]azulene-7(6H)-one]
IC50 (LoVo cells; [4]): 100 to 1000 nM | IC50 (ATR kinase; [6]): < 10 nM

CC(C(N)=O)N1C(=O)CCn2nc(-c3cc[nH]n3)c3nc(N4CCOC[C@H]4C)cc1c32 (stereo partly drawn) [Compound 104, 2-(4-((R)-3-methylmorpholino)-7-oxo-2-(1H-pyrazol-3-yl)-8,9-dihydro-1,3,6,9a-tetraazabenzo[cd]azulene-6(7H)-yl)propanamide]
IC50 (ATR kinase; [3]): 10 to 100 nM

C[C@@H]1COCCN1c1cc2c3c(n1)c(-c1cc[nH]n1)nn3CCN2 [Compound 61, (R)-4-(1-(1H-pyrazol-3-yl)-4,5-dihydro-3H-2,2a,5,8-tetraazaacenaphthen-7-yl)-3-methylmorpholine]
IC50 (ATR kinase; [3]): 1000 to 2500 nM

C[C@@H]1COCCN1c1cc2c3c(n1)c(-c1cc[nH]n1)nn3CCC(=O)N2C1CC2(C1)CC(C)(O)C2 (stereo partly drawn) [Compound 94, (R)-6-(6-hydroxy-6-methylspiro[3.3]hept-2-yl)-4-(3-methylmorpholinyl)-2-(1H-pyrazol-3-yl)-8,9-dihydro-1,3,6,9a-tetraazabenzo[cd]azulene-7(6H)-one]
IC50 (ATR kinase; [1]): 10 to 100 nM

CC1c2cc(N3CCOC[C@H]3C)nc3c2c(nn3-c2cc[nH]n2)CCN1C (single isomer, unassigned) [Compound 35B]
IC50 (ATR kinase; [3]): < 10 nM
